Data from patent US12626779B2, “Determining a targeted therapy using virtual inference of protein activity by regulon enrichment analysis of an individual subject tissue sample” (The Trustees of Columbia University in the City of New York, priority 2015, dated 2026).
“And” between values parts separate entries of the source, which are not always exact repeats. Equal values may be shown once. Read-outs that look alike come from different tables or passages of the source.

Tested on: lung adenocarcinoma cell lines
Source text: FIG. 7A illustrates the probability density for the nonmutated (salmon) and mutated (green) samples based on MPS for six actionable mutations (complete list in FIGS. 21A-21F). Right plots show MPS (v axis) for all samples rank-sorted by MPS; green vertical lines indicate the mutated samples. MPS-defined WT and mutant phenotypes (likelihood ratio >3) are highlighted in salmon and green. […] Scatter plots show drug sensitivity, quantified by the area under the titration curves (AUC), for EGFR-targeting drugs as a function of MPS (expressed as likelihood ratio). Cell lines resembling an EGFR mutated and WT phenotypes are highlighted in green (likelihood ratio >3) and salmon boxes, respectively. Green dots indicate cell lines harboring nonsilent mutations. Solid and doted horizontal lines indicate the mean and 2.33 standard deviation over the mean of the chemoresistant cell lines, respectively. […] Violin plots show the probability density for drug sensitivity (AUC) of the cell lines showing an EGFR WT (green) or mutant (brown) phenotype according to MPS; horizontal lines indicate distribution means, which were contrasted by Student t-test (P values in insets).

[1] = EGFR-mutated cell lines with MPS>0.5
[2] = cell lines with low EGFR MPS (<−0.5) that yet harbored EGFR mutations

CN1CCN(CCOc2cc(OC3CCOCC3)c3c(Nc4c(Cl)ccc5c4OCO5)ncnc3c2)CC1 [AZD0530, saracatinib]
fraction of cell lines responding to EGFR inhibitors (EGFR WT cell lines with MPS<−0.5): 33%
fraction of cell lines responding to EGFR inhibitors (EGFR WT cell lines with MPS>0.5): 50%
cell lines observed to be sensitive to the drug (sensitive/total) [1]: 5/6
cell lines observed to be sensitive to the drug (sensitive/total) [2]: 0/2

C#Cc1cccc(Nc2ncnc3cc(OCCOC)c(OCCOC)cc23)c1 [erlotinib]
cell lines observed to be sensitive to the drug (sensitive/total) [1]: 5/6
cell lines observed to be sensitive to the drug (sensitive/total) [2]: 1/2

CS(=O)(=O)CCNCc1ccc(-c2ccc3ncnc(Nc4ccc(OCc5cccc(F)c5)c(Cl)c4)c3c2)o1 [lapatinib]
fraction of cell lines responding to EGFR inhibitors: 36% and 27%
cell lines observed to be sensitive to the drug (sensitive/total) [1]: 4/6
cell lines observed to be sensitive to the drug (sensitive/total) [2]: 1/2
